{"source": "patent US12071425B2", "about": "(Genentech, Inc., priority 2018, dated 2024)", "note": "Where a name gives a salt, the structure may show the parent alone."}
{"target": "kinase domain of IRE1 alpha (His-tagged kinase dead construct KR, AA G547-L977, D688N) (Homo sapiens (Human), UniProt O75460, D688N)", "sequence (O75460 547-977 D688N)": "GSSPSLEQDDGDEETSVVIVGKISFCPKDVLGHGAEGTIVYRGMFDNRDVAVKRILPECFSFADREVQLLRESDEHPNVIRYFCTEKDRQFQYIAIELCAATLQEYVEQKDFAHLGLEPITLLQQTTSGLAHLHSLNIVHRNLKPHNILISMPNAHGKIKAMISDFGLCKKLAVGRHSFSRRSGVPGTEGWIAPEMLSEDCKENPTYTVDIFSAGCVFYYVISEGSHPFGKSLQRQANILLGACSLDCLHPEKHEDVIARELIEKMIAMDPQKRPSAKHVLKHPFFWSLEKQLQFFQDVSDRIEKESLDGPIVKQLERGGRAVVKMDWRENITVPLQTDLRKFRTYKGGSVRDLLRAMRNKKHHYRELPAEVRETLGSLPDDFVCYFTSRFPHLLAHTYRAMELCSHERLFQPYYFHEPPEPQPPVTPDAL", "test": "IRE1α TR-FRET competition binding assay", "conditions": "competition with Kinase Tracer 236, 0.1 μM; one hour at room temperature", "protocol": "To determine the affinity of compound binding to the kinase domain of IRE1 alpha, a Time Resolved Fluorescence Resonance Energy Transfer (TR-FRET) competition assay was used. A His-tagged IRE1 alpha kinase dead construct containing the kinase and RNase domains (KR, AA G547-L977, D688N) was expressed in Sf9 insect cells. The purified protein (final concentration 0.006 μM micromolar) was pre-incubated with anti-His Europium labeled antibody (Life Technologies PV5596, final concentration 0.002 μM micromolar) for one hour at 4° C. in 1X TR-FRET Assay Buffer (50 mM HEPES, pH 7.5.10 mM MgCl2, 0.083 mM Brij 35, 1 mM DTT, and 0.1% bovine gamma globulin) prior to addition to test compounds. A fluorescent labeled probe based on an ATP competitive inhibitor (Kinase Tracer 236, Life Technologies PV5592) is added to a final concentration of 0.1 μM (micromolar). Reactions were carried out for one hour at room temperature in a final volume of 20 μL (microliter) in 384 well white ProxiPlates (Perkin Elmer 6008289). Binding of the tracer to the IRE1 protein alpha was detected in an Envision instrument (PerkinElmer) equipped with a TRF laser option and a LANCE/Delfia Dual/Bias D400/D630 mirror (Ex 347 nm, 1st Em 665 nm, 2nd Em 615 nm).\nExemplary compounds in Table A1 were tested in the IRE1α binding assays.", "units": {"IC50": "nM"}}
{"smiles": "CC(C)(CC#N)CS(=O)(=O)Nc1ccc(Oc2ncccc2-c2ccnc(N[C@H]3CCCNC3)n2)c(F)c1F", "note": "[Compound 216, (S)-3-cyano-N-(2,3-difluoro-4-((3-(2-(piperidin-3-ylamino)pyrimidin-4-yl)pyridin-2-yl)oxy)phenyl)-2,2-dimethylpropane-1-sulfonamide]", "IC50": 13}
{"smiles": "O=S(=O)(Cc1ccccc1)Nc1ccc(Oc2ncccc2-c2ccnc(N[C@H]3CCCNC3)n2)c(F)c1F", "note": "[Compound 108, (S)-N-(2,3-difluoro-4-((3-(2-(piperidin-3-ylamino)pyrimidin-4-yl)pyridin-2-yl)oxy)phenyl)-1-phenylmethanesulfonamide hydrochloride]", "IC50": 3.4}
{"smiles": "O=S(=O)(Cc1ccccc1)Nc1c(F)cc(Oc2ncccc2-c2ccnc(N[C@H]3CCCNC3)n2)cc1F", "note": "[Compound 152, (S)-N-(2,6-difluoro-4-((3-(2-(piperidin-3-ylamino)pyrimidin-4-yl)pyridin-2-yl)oxy)phenyl)-1-phenylmethanesulfonamide hydrochloride]", "IC50": 3.9}
{"smiles": "O=S(=O)(Nc1cccc(Oc2ncccc2-c2ccnc(N[C@H]3CCCNC3)n2)c1)c1ccccc1Cl", "note": "[Compound 132, (S)-2-Chloro-N-(3-((3-(2-(piperidin-3-ylamino)pyrimidin-4-yl)pyridin-2-yl)oxy)phenyl)benzenesulfonamide hydrochloride]", "IC50": 32}
{"smiles": "CC(F)C1CNCC(Nc2nccc(-c3cccnc3Oc3cc(F)c(NS(=O)(=O)Cc4ccccc4)c(F)c3F)n2)C1", "note": "(single isomer, unassigned) [Compound 347, 1-Phenyl-N-(2,3,6-trifluoro-4-((3-(2-((5-(1-fluoroethyl)piperidin-3-yl)amino)pyrimidin-4-yl)pyridin-2-yl)oxy)phenyl)methanesulfonamide]", "IC50": 49}
{"smiles": "O=S(=O)(Cc1ccccc1)Nc1c(F)cc(Oc2ncccc2-c2ccnc(NC3CNCC(CF)C3)n2)c(F)c1F", "note": "(single isomer, unassigned) [Compound 278, 1-Phenyl-N-(2,3,6-trifluoro-4-((3-(2-((5-(fluoromethyl)piperidin-3-yl)amino)pyrimidin-4-yl)pyridin-2-yl)oxy)phenyl)methanesulfonamide]", "IC50": 0.78}
{"smiles": "CCCS(=O)(=O)Nc1ccc(F)c(Oc2ncccc2-c2ccnc(N[C@H]3CCCNC3)n2)c1", "note": "[Compound 127, (S)-N-(4-fluoro-3-((3-(2-(piperidin-3-ylamino)pyrimidin-4-yl)pyridin-2-yl)oxy)phenyl)propane-1-sulfonamide]", "IC50": 370}
{"smiles": "CCCS(=O)(=O)Nc1cc(C)c(Oc2ncccc2-c2ccnc(N[C@H]3CCCNC3)n2)cc1C", "note": "[Compound 124, (S)-N-(2,5-Dimethyl-4-((3-(2-(piperidin-3-ylamino)pyrimidin-4-yl)pyridin-2-yl)oxy)phenyl)propane-1-sulfonamide]", "IC50": 210}
{"smiles": "N#Cc1cc(F)ccc1CS(=O)(=O)Nc1c(F)cc(Oc2ncccc2-c2ccnc(N[C@@H]3CNC[C@@H](F)C3)n2)c(F)c1F", "note": "[Compound 357, 1-(2-Cyano-4-fluoro-phenyl)-N-[2,3,6-trifluoro-4-[[3-[2-[[(3S,5S)-5-fluoro-3-piperidyl]amino]pyrimidin-4-yl]-2-pyridyl]oxy]phenyl]methanesulfonamide]", "IC50": 1}
{"smiles": "O=C(NCc1cccc(Oc2ncccc2-c2ccnc(N[C@H]3CCCNC3)n2)c1F)C1CC1", "note": "[Compound 197, (S)—N-(2-Fluoro-3-((3-(2-(piperidin-3-ylamino)pyrimidin-4-yl)pyridin-2-yl)oxy)benzyl)cyclopropanecarboxamide]", "IC50": 490}
{"smiles": "Cc1ccc(CS(=O)(=O)Nc2cc(F)c(Oc3ncccc3-c3ccnc(N[C@@H]4CNC[C@@](C)(F)C4)n3)c(C)c2F)cc1", "note": "[Compound 311, N-(2,5-Difluoro-4-((3-(2-(((3S,5S)-5-fluoro-5-methylpiperidin-3-yl)amino)pyrimidin-4-yl)pyridin-2-yl)oxy)-3-methylphenyl)-1-(p-tolyl)methanesulfonamide]", "IC50": 0.29}
{"smiles": "Cc1cc(NS(=O)(=O)Cc2ccccc2)c(F)c(F)c1Oc1ncccc1-c1ccnc(N[C@H]2CCCNC2)n1", "note": "[Compound 155, (S)-N-(2,3-difluoro-5-methyl-4-((3-(2-(piperidin-3-ylamino)pyrimidin-4-yl)pyridin-2-yl)oxy)phenyl)-1-phenylmethanesulfonamide]", "IC50": 4.5}
{"smiles": "O=C(Nc1ccc(Oc2ncccc2-c2ccnc(N[C@H]3CCCNC3)n2)c(F)c1F)C1CC12CC2", "note": "(stereo partly drawn) [Compound 151, N-(2,3-difluoro-4-((3-(2-(((S)-piperidin-3-yl)amino)pyrimidin-4-yl)pyridin-2-yl)oxy)phenyl)spiro[2.2]pentane-1-carboxamide hydrochloride]", "IC50": 84}
{"smiles": "O=S(=O)(Nc1c(F)cc(Oc2ncccc2-c2ccnc(N[C@@H]3CNC[C@@H](F)C3)n2)c(F)c1F)N1CCCC1", "note": "[Compound 258, N-(2,3,6-Trifluoro-4-((3-(2-(((3S,5S)-5-fluoropiperidin-3-yl)amino)pyrimidin-4-yl)pyridin-2-yl)oxy)phenyl)pyrrolidine-1-sulfonamide]", "IC50": 5.2}
{"smiles": "O=S(=O)(Cc1ccccc1)Nc1ccc(Oc2ncccc2-c2ccnc(N[C@H]3CCCNC3)n2)c(F)c1Cl", "note": "[Compound 161, (S)—N-(2-Chloro-3-fluoro-4-((3-(2-(piperidin-3-ylamino)pyrimidin-4-yl)pyridin-2-yl)oxy)phenyl)-1-phenylmethanesulfonamide]", "IC50": 4.2}
{"smiles": "CC(F)(F)C1CNCC(Nc2nccc(-c3cccnc3Oc3cc(F)c(NS(=O)(=O)Cc4ccccc4)c(F)c3F)n2)C1", "note": "(single isomer, unassigned) [Compound 339, N-(4-((3-(2-((5-(1, l-Difluoroethyl)piperidin-3-yl)amino)pyrimidin-4-yl)pyridin-2-yl)oxy)-2,3,6-trifluorophenyl)-1-phenylmethanesulfonamide]", "IC50": 0.24}
{"smiles": "O=S(=O)(Nc1ccc(Oc2ncccc2-c2ccnc(N[C@H]3CCCNC3)n2)c(F)c1F)c1cccnc1", "note": "[Compound 214, (S)-N-(2,3-difluoro-4-((3-(2-(piperidin-3-ylamino)pyrimidin-4-yl)pyridin-2-yl)oxy)phenyl)pyridine-3-sulfonamide]", "IC50": 44}
{"smiles": "O=C(Nc1ccc(Oc2ncccc2-c2ccnc(N[C@H]3CCCNC3)n2)c(F)c1F)C1CC1", "note": "[Compound 147, (S)—N-(2,3-Difluoro-4-(3-(2-(piperidin-3-ylamino)pyrimidin-4-yl)pyridin-2-yloxy)phenyl)cyclopropanecarboxamide hydrochloride]", "IC50": 210}
{"smiles": "O=S(=O)(Cc1ccccc1)Nc1c(F)cc(Oc2ncccc2-c2ccnc(NC3CC4CCCN(C4)C3)n2)c(F)c1F", "note": "(single isomer, unassigned) [Compound 288, N-(4-((3-(2-((1-azabicyclo[3.3.1]nonan-3-yl)amino)pyrimidin-4-yl)pyridin-2-yl)oxy)-2,3,6-trifluorophenyl)-1-phenylmethanesulfonamide]", "IC50": 1.1}
{"smiles": "Cc1cc(NS(=O)(=O)c2ccccc2Cl)ccc1Oc1ncccc1-c1ccnc(N[C@H]2CC[C@H](N)CC2)n1", "note": "[Compound 101, N-[4-[[3-[2-[(4-aminocyclohexyl)amino]pyrimidin-4-yl]-2-pyridyl]oxy]-3-methyl-phenyl]-2-chloro-benzenesulfonamide hydrochloride]", "IC50": 13}
{"smiles": "O=S(=O)(CCC(F)(F)F)Nc1ccc(Oc2ncccc2-c2ccnc(N[C@H]3CCCNC3)n2)cc1F", "note": "[Compound 105, (S)-3,3,3-trifluoro-N-(2-fluoro-4-((3-(2-(piperidin-3-ylamino)pyrimidin-4-yl)pyridin-2-yl)oxy)phenyl)propane-1-sulfonamide hydrochloride]", "IC50": 27}
{"smiles": "COc1ccc(S(=O)(=O)Nc2ccc(Oc3ncccc3-c3ccnc(N[C@H]4CCCNC4)n3)c(F)c2F)cc1", "note": "[Compound 211, (S)-N-(2,3-difluoro-4-((3-(2-(piperidin-3-ylamino)pyrimidin-4-yl)pyridin-2-yl)oxy)phenyl)-4-methoxybenzenesulfonamide]", "IC50": 33}
{"smiles": "CCC1CCN(c2ccc(Oc3ncccc3-c3ccnc(N[C@H]4CCCNC4)n3)c(F)c2F)C1=O", "note": "(single isomer, unassigned) [Compound 248]", "IC50": 45}
{"smiles": "O=S(=O)(Cc1ccccc1)Nc1ccc(Oc2ncccc2-c2ccnc(N[C@H]3CC[C@H](O)CC3)n2)c(F)c1F", "note": "[Compound 182, N-(2,3-difluoro-4-((3-(2-(((1r,4r)-4-hydroxycyclohexyl)amino)pyrimidin-4-yl)pyridin-2-yl)oxy)phenyl)-1-phenylmethanesulfonamide]", "IC50": 9.5}
{"smiles": "Cc1ccc(NS(=O)(=O)c2ccccc2Cl)cc1Oc1ncccc1-c1ccnc(N[C@H]2CCCNC2)n1", "note": "[Compound 135, (S)-2-Chloro-N-(4-methyl-3-((3-(2-(piperidin-3-ylamino)pyrimidin-4-yl)pyridin-2-yl)oxy)phenyl)benzenesulfonamide hydrochloride]", "IC50": 41}
{"smiles": "O=S(=O)(Cc1c(F)cccc1Cl)Nc1c(F)cc(Oc2ncccc2-c2ccnc(N[C@@H]3CNC[C@@H](F)C3)n2)c(F)c1F", "note": "[Compound 367, 1-(2-Chloro-6-fluorophenyl)-N-(2,3,6-trifluoro-4-((3-(2-(((3S,5S)-5-fluoropiperidin-3-yl)amino)pyrimidin-4-yl)pyridin-2-yl)oxy)phenyl)methanesulfonamide]", "IC50": 0.2}
